Experimental data published in article PMC10447463, “Data-mining unveils structure–property–activity correlation of viral infectivity enhancing self-assembling peptides” (Nature Communications, 2023).
Where two headings read alike, the source gives them in different places.

Experiments:
[1] = β-sheet content by ATR-FT-IR; type: physicochemical; details: Fig. S7 panel A; β-sheet content by ATR-FT-IR
How it was run: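 Lyophilized PNF (from 1 mg/mL) scanned 64× on diamond ATR, 2 cm^-1 resolution; β-sheet content per earlier report. CR: spin through 3 kDa MWCO, 16200 x g, 4 °C, 45 min; lyophilize filtrate + unfiltered; DMSO; fluorescamine 20 min RT; ex 365/em 470.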

[2] = Zeta-potential measurement; type: physicochemical
How it was run: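 Samples: 1 mg/mL in PBS pH 7.4 (from DMSO), 1 d at RT, then diluted in 1 mM KCl immediately before measurement. Triplicates, two independent runs averaged.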

[3] = Turbidity, derived count rate of scattered light; type: physicochemical; details: for Count Rate / kcps: derived count rate of scattered light at 633 nm, 173°, from zeta-potential measurement, 0.1 mg/mL in 1 mM KCl after 1 d at 1 mg/mL in PBS, turbidity / microscopic aggregation, mean of triplicate
How it was run: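 One-day room-temperature aggregation at 1 mg/mL in PBS (pH 7.4) preceded measurement; samples then went into 1 mM KCl. Triplicates per sample, two independent experiments averaged.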

[4] = tested on: HIV-1 infection of TZM-bl cells; assay: HIV-1 infectivity enhancement assay, β-galactosidase luminescence; type: cell-based; details: for Rel-EFC / Log10 Infection Rel EFC: 1.3 µM peptide; for Rel-EFC: infection relative to EF-C (QCKIKQIINMWQ = 1); for Log10 Infection Rel EFC: log10 of infection relative to EF-C; for Log Infectivity: Log10 infection relative to EF-C, TZM-bl cells, asymmetric std dev errors; for Log10 Infection Rel EF-C: HIV-1 infection of TZM-bl cells; for Log10 of Rel to EFC (Feb2021): Log10 of infection relative to EF-C, all peptides of FigS16; for Abs. Inf.: absolute infection signal, HIV-1 on TZM-bl cells, β-galactosidase luminescence; for Log10 Inf. rel. to EF-C: log10 of HIV-1 infection of TZM-bl cells relative to EF-C (EF-C = 0)
[5] = zeta-potential of peptide, source data of Figure 2C
[6] = zeta-potential of the peptide assemblies, mean, Figure 3A source data
[7] = Log10 of derived count rate of scattered light (turbidity)
[8] = turbidity, Log10 of derived count rate of scattered light, Figure 3A source data
[9] = turbidity, log10 of derived count rate of scattered light
[10] = Fig. S7 panel A (plotted against β-sheet content)
[11] = Fig. S7 panel B (plotted against CR), rounded to two decimals
[12] = Log10 of infection rate relative to EF-C, Figure 3A source data
[13] = infection rate relative to EF-C, log10, data of Figure 2D
[14] = infection rate relative to EF-C, log10, source data of Figure 2C
[15] = zeta potential of peptide assemblies

| Substance | b -sheet / % [1] [%] | Zeta-Pot. [2] | Zeta-Potential / mV [2, 5] [mV] | Zeta-Potential / mV [2, 6] [mV] | Log10 Count Rate [3, 7] | Count Rate / kcps [3] [kcps] | Log10 Count Rate [3, 8] | Log10 Count Rate [3, 9] | Rel-EFC [4] | Log10 Infection Rel EFC [4] | Log Infectivity [4, 10] | Log Infectivity [4, 11] | Log10 Infection Rel EF-C [4, 12] | Log10 Infection Rel EF-C [4, 13] | Log10 Infection Rel EF-C [4, 14] | Log10 of Rel to EFC (Feb2021) [4] | Abs. Inf. [4] | Log10 Inf. rel. to EF-C [4] | further results |
| --- | --- | --- | --- | --- | --- | --- | --- | --- | --- | --- | --- | --- | --- | --- | --- | --- | --- | --- | --- |
| CKFKFQF | 47.43 | 19.73 | 17.4 | 19.73 | 3.725 | 5303 | 3.725 | 3.725 | 1,23 | 0,09 | 0.09083 | 0.09 | 0.09 | 0.09083 | 0.09083 | 0.09 | 20066.66667 | 0.09083 | Zeta pot. / mV ([2]; zeta potential of the peptide assemblies): 19.73 mV; Count Rate ([3]; T0, mean of n = 3): 719.1 kcps; Count Rate ([3]; T0, replicate 2): 718.1 kcps; Count Rate ([3]; T0, replicate 3): 875.1 kcps; Count Rate ([3]; T2m, mean of n = 3): 801.2 kcps; Count Rate ([3]; T2m, replicate 1): 2097 kcps; Count Rate ([3]; T2m, replicate 2): 115.2 kcps; Count Rate ([3]; T2m, replicate 3): 191.5 kcps; Count Rate ([3]; T1d, mean of n = 3): 1387.9 kcps; Count Rate ([3]; T1d, replicate 1): 43.1 kcps; Count Rate ([3]; T1d, replicate 2): 2192.2 kcps; Count Rate ([3]; T1d, replicate 3): 1928.4 kcps; Log10 Count Rate ([3]; logarithm of count rate in kcps): 3.725; Abs. Infection at 0.26 µM ([4]; peptide 0.26 µM, mean of n = 3, Figure 4A): 5684; Abs. Infection at 1.3 µM ([4]; peptide 1.3 µM, mean of n = 3, Figure 4A): 20066.66667 |
| KNERIKNERI | 37.95 | -16 | -11.61 | -16 | 2.508 | 322 | 2.508 | 2.508 | 0,01 | -1,89 | -1.888 | -1.89 | -1.89 | -1.888 | -1.888 |  | 143.3 | -1.888 |  |
| KIKQIINM | 44 |  | 18.1 | 16.3 | 3.395 | 2481 | 3.395 | 3.395 | 0,45 | -0,35 | -0.3458 | -0.35 | -0.35 | -0.3458 | -0.3458 | -0.35 |  | -0.3458 | Zeta-Pot. [2, 15]: 16.3 |
| CRFRVPF | 11.43 | 4.413 | 1.957 | 4.41 | 1.869 | 74 | 1.869 | 1.869 | 0,02 | -1,7 | -1.701 | -1.7 | -1.7 | -1.701 | -1.701 |  | 376.7 | -1.701 |  |
| KKFQKKFQ | 40.421 | -9.19 | -6.175 | -9.19 | 1.867 | 74 | 1.867 | 1.867 | 0,03 | -1,54 | -1.545 |  | -1.54 | -1.545 | -1.545 |  | 423.3 | -1.545 |  |
| RGECKFKFQF | 46.18 | 23.97 | 22.32 | 23.97 | 2.341 | 219 | 2.341 | 2.341 | 0,33 | -0,48 | -0.4776 | -0.48 | -0.48 | -0.4776 | -0.4776 | -0.48 | 7411 | -0.4776 |  |
| CRFRFQF | 39.77 | -2.097 | 6.218 | -2.1 | 2.592 | 391 | 2.592 | 2.592 | 0,34 | -0,46 | -0.4635 | -0.46 | -0.46 | -0.4635 | -0.4635 | -0.46 | 7508 | -0.4635 |  |
| HRRHFRHKITKKK | 45.34 | -9.223 | -4.964 | -9.22 | 0.9777 | 10 | 0.9777 | 0.9777 | 0,01 | -1,87 | -1.868 | -1.87 | -1.87 | -1.868 | -1.868 |  | 150 | -1.868 |  |
| RGDKIRGDKI | 15.01 | -13.57 | -7.422 | -13.57 | 2.456 | 286 | 2.456 | 2.456 | 0,01 | -2,13 | -2.126 | -2.13 | -2.13 | -2.126 | -2.126 |  | 163.3 | -2.126 |  |
| KIKIQINAWQ | 27.74 |  | 13.72 | 13.1 | 3.174 | 1494 | 3.174 | 3.174 | 0,54 | -0,27 | -0.2703 |  | -0.27 | -0.2703 | -0.2703 | -0.27 |  | -0.2703 | Zeta-Pot. [2, 15]: 13.1 |
| KFKFQF | 46 |  | -8.745 | -11.03 | 2.263 | 183 | 2.263 | 2.263 | 0,06 | -1,21 | -1.213 | -1.21 | -1.21 | -1.213 | -1.213 |  |  | -1.213 | Zeta-Pot. [2, 15]: -11.03 |
| NMWQKIKQII | 38.14 | -0.213 | 2.325 | -0.21 | 2.992 | 982 | 2.992 | 2.992 | 0,03 | -1,6 | -1.5971 |  | -1.6 | -1.5971 | -1.5971 |  | 283.3 | -1.5971 |  |
